Four compounds from ChEMBL document CHEMBL5052840, “Pharmaceutical compounds and therapeutic methods” (2020) can be followed below.

One may read the Cmax as the peak of the concentration-time curve. Broadly, the bioavailability is the share of a dose that reaches the circulation, judged against a reference dose that is usually intravenous. Usually IC50 stands for the concentration at which inhibition is half-maximal.

The target in series [1] is T1, Polycomb complex protein BMI-1 (Homo sapiens) (UniProt P35226).
T1 sequence (whole entry): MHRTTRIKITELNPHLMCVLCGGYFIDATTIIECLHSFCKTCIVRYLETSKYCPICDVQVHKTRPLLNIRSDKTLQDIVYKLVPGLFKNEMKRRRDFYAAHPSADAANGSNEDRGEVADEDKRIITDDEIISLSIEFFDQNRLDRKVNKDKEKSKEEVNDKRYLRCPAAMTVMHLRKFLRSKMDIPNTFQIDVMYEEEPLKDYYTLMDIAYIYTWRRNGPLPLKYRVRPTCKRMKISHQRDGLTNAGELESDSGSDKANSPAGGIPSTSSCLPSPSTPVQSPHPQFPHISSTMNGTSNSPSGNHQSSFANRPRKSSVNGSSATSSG
As to the kind of experiment: Inhibition of BMI1 in human Glioblastoma cell 3D spheres at 7 to 10 nM assessed as reduction in phospho-RB levels measured by Western blotting method. The class given is cell-based. The note with it: Glioblastoma cell line, dose 7-10 nM. In general terms: A western blot detects proteins with antibodies after separation by electrophoresis.

In series [2] the target is T1, Polycomb complex protein BMI-1 (Homo sapiens). As to the kind of experiment: Inhibition of BMI1 in human Glioblastoma cell 3D spheres at 7 to 10 nM assessed as reduction in STAT1 levels measured by Western blotting method. The class given is cell-based. Particulars: Glioblastoma cell line, dose 7-10 nM.
Series [3] has the same target. The experiment in a line: Inhibition of BMI1 in human Glioblastoma cell 3D spheres at 7 to 10 nM assessed as reduction in BMI1 protein levels measured by Western blotting method. The note with it: Glioblastoma cell line, dose 7-10 nM. It counts as cell-based.
Series [4] can be described thus: Plasma concentration in male C57BL/6 mouse at 2 mg/kg, iv administered as single dose measured at 0.35 hrs measured by LC/MS-MS analysis. The class given is ADME, organism-based.
Series [5] can be described thus: Brain concentration in male C57BL/6 mouse at 10 mg/kg, po administered as single dose measured at 3 hrs measured by LC/MS-MS analysis. It counts as ADME, organism-based. The note with it: read-out: Drug uptake.
A short description of series [6]: Brain concentration in male C57BL/6 mouse at 2 mg/kg, iv administered as single dose measured at 1 hr measured by LC/MS-MS analysis. It counts as ADME, organism-based. The note with it: read-out: Drug uptake.
The nature of series [7]: Brain concentration in male C57BL/6 mouse at 10 mg/kg, ip administered as single dose measured at 3 hrs measured by LC/MS-MS analysis. The class given is ADME, organism-based. The note with it: read-out: Drug uptake.
Series [8] in a line: Brain concentration in male C57BL/6 mouse at 2 mg/kg, iv administered as single dose measured at 0.08 hrs measured by LC/MS-MS analysis. Particulars: read-out: Drug uptake. The class given is ADME, organism-based.
Series [9] in a line: Plasma concentration in male C57BL/6 mouse at 10 mg/kg, po administered as single dose measured at 0.35 hrs measured by LC/MS-MS analysis. The class given is ADME, organism-based.
The nature of series [10]: Plasma concentration in male C57BL/6 mouse at 10 mg/kg, po administered as single dose measured at 0.08 hrs measured by LC/MS-MS analysis. The class given is ADME, organism-based.
Series [11] is described as follows: Brain concentration in male C57BL/6 mouse at 10 mg/kg, ip administered as single dose measured at 6 hrs measured by LC/MS-MS analysis. The class given is ADME, organism-based. The note with it: read-out: Drug uptake.
Series [12] in a line: Cmax in male C57BL/6 mouse plasma at 2 mg/kg, iv measured by LC/MS-MS analysis. The class given is ADME, organism-based. Details: route intravenous, dose 2 mg/kg.
Series [13] can be described thus: Plasma concentration in male C57BL/6 mouse at 10 mg/kg, po administered as single dose measured at 3 hrs measured by LC/MS-MS analysis. The class given is ADME, organism-based.
The nature of series [14]: Brain concentration in male C57BL/6 mouse at 2 mg/kg, iv administered as single dose measured at 0.35 hrs measured by LC/MS-MS analysis. It counts as ADME, organism-based. The note with it: read-out: Drug uptake.
Series [15] can be described thus: Plasma concentration in male C57BL/6 mouse at 10 mg/kg, ip administered as single dose measured at 1 hr measured by LC/MS-MS analysis. It counts as ADME, organism-based.
The nature of series [16]: Plasma concentration in male C57BL/6 mouse at 2 mg/kg, iv administered as single dose measured at 0.08 hrs measured by LC/MS-MS analysis. It counts as ADME, organism-based.
The nature of series [17]: Brain concentration in male C57BL/6 mouse at 10 mg/kg, ip administered as single dose measured at 1 hr measured by LC/MS-MS analysis. It counts as ADME, organism-based. Particulars: read-out: Drug uptake.
Series [18] can be described thus: Brain concentration in male C57BL/6 mouse at 10 mg/kg, po administered as single dose measured at 1 hr measured by LC/MS-MS analysis. It counts as ADME, organism-based. Particulars: read-out: Drug uptake.
The nature of series [19]: Oral bioavailability in male C57BL/6 mouse plasma at 10 mg/kg measured by LC/MS-MS analysis. It counts as ADME, organism-based.
Series [20] can be described thus: AUClast in male C57BL/6 mouse brain at 10 mg/kg, po measured by LC/MS-MS analysis. The class given is ADME, organism-based. The note with it: in vivo.
Series [21] in a line: Cmax in male C57BL/6 mouse brain at 2 mg/kg, iv measured by LC/MS-MS analysis. Details: route intravenous, dose 2 mg/kg. It counts as ADME, organism-based.
The nature of series [22]: AUC (infinity) in male C57BL/6 mouse brain at 10 mg/kg, po measured by LC/MS-MS analysis. It counts as ADME, organism-based. Particulars: in vivo. Details: time infinity, route oral, dose 10 mg/kg.
Series [23] in a line: Plasma concentration in male C57BL/6 mouse at 10 mg/kg, ip administered as single dose measured at 0.35 hrs measured by LC/MS-MS analysis. It counts as ADME, organism-based.
The nature of series [24]: AUClast in male C57BL/6 mouse brain at 2 mg/kg, iv measured by LC/MS-MS analysis. It counts as ADME, organism-based. The note with it: in vivo.
Series [25] in a line: Brain concentration in male C57BL/6 mouse at 10 mg/kg, po administered as single dose measured at 0.35 hrs measured by LC/MS-MS analysis. It counts as ADME, organism-based. The note with it: read-out: Drug uptake.
The nature of series [26]: Plasma concentration in male C57BL/6 mouse at 10 mg/kg, po administered as single dose measured at 6 hrs measured by LC/MS-MS analysis. The class given is ADME, organism-based.
A short description of series [27]: Plasma concentration in male C57BL/6 mouse at 10 mg/kg, ip administered as single dose measured at 3 hrs measured by LC/MS-MS analysis. The class given is ADME, organism-based.
Series [28] can be described thus: Brain concentration in male C57BL/6 mouse at 10 mg/kg, po administered as single dose measured at 6 hrs measured by LC/MS-MS analysis. It counts as ADME, organism-based. Particulars: read-out: Drug uptake.
Series [29] can be described thus: Plasma concentration in male C57BL/6 mouse at 10 mg/kg, po administered as single dose measured at 1 hr measured by LC/MS-MS analysis. The class given is ADME, organism-based.
Series [30] in a line: Brain concentration in male C57BL/6 mouse at 10 mg/kg, po administered as single dose measured at 0.08 hrs measured by LC/MS-MS analysis. It counts as ADME, organism-based. The note with it: read-out: Drug uptake.
Series [31] can be described thus: Plasma concentration in male C57BL/6 mouse at 2 mg/kg, iv administered as single dose measured at 1 hr measured by LC/MS-MS analysis. The class given is ADME, organism-based.
The nature of series [32]: Brain concentration in male C57BL/6 mouse at 10 mg/kg, ip administered as single dose measured at 0.35 hrs measured by LC/MS-MS analysis. The class given is ADME, organism-based. Particulars: read-out: Drug uptake.
Series [33] in a line: Plasma concentration in male C57BL/6 mouse at 10 mg/kg, ip administered as single dose measured at 0.08 hrs measured by LC/MS-MS analysis. The class given is ADME, organism-based.
Series [34] is described as follows: AUClast in male C57BL/6 mouse brain at 10 mg/kg, ip measured by LC/MS-MS analysis. The class given is ADME, organism-based. The note with it: in vivo.
Series [35] is described as follows: Brain concentration in male C57BL/6 mouse at 10 mg/kg, ip administered as single dose measured at 0.08 hrs measured by LC/MS-MS analysis. The class given is ADME, organism-based. The note with it: read-out: Drug uptake.
Series [36] in a line: Plasma concentration in male C57BL/6 mouse at 10 mg/kg, ip administered as single dose measured at 6 hrs measured by LC/MS-MS analysis. It counts as ADME, organism-based.
A short description of series [37]: Antiproliferative activity against human Glioblastoma cell after 72 hrs by MTT assay. It counts as functional, cell-based. The note with it: Glioblastoma cell line.
Series [38] has as its target T1, Polycomb complex protein BMI-1 (Homo sapiens). The experiment in a line: Inhibition of BMI1 in human Glioblastoma cell 3D spheres at 7 to 10 nM assessed as reduction in phospho-RB levels measured up to 120 hrs by Western blotting method. The class given is cell-based. Particulars: Glioblastoma cell line, dose 7-10 nM, time hrs <=120.
Series [39] shares this target. The experiment in a line: Inhibition of BMI1 in human Glioblastoma cell 3D spheres at 7 to 10 nM assessed as reduction in PD-L1 protein levels measured up to 120 hrs by Western blotting method. Particulars: Glioblastoma cell line, dose 7-10 nM, time hrs <=120. The class given is cell-based.
Series [40] has the same target. The experiment in a line: Inhibition of BMI1 in human Glioblastoma cell 3D spheres at 7 to 10 nM assessed as reduction in BMI1 protein levels measured up to 120 hrs by Western blotting method. The class given is cell-based. The note with it: Glioblastoma cell line, dose 7-10 nM, time hrs <=120.

Each structure is given as a SMILES string. Calls of active or inactive are those of the source. The rule behind the calls is not given here.

Take `Cc1nc2ccccn2c1-c1csc(Nc2ccc3c(c2)OCO3)n1`: the inhibition entry in [1] (tested as the 2H-labelled form), in [2] (tested as the 2H-labelled form) and in series [3] (tested as the 2H-labelled form) was “Active” each time.

For the compound `Cl.[2H]C1([2H])Oc2ccc(Nc3nc(-c4c(C)nc5ccccn45)cs3)cc2O1`, the concentration at 0.35 h in series [4] was determined as 44.8 ng/mL; in series [9] it was 163 ng/mL; in series [14], 180 ng/g; in [23], 458 ng/mL; in series [25], 53 ng/g; in series [32], 236 ng/g. For the same compound, the concentration at 3 h in [5] was 20.5 ng/g; in [7], 82 ng/g; in series [13] it was 63.5 ng/mL; in series [27] it was 74.9 ng/mL. In addition, the concentration at 1 h turned out to be 13.8 ng/g in series [6]; 232 ng/mL in series [15]; 90.3 ng/g in [17]; 51.9 ng/g in series [18]; 109 ng/mL in series [29]; 9.57 ng/mL in series [31]. The concentration at 0.08 h in [8] was 44.9 ng/g; in series [10] it was 207 ng/mL; in series [16], 256 ng/mL; in series [30] it was 67.3 ng/g; in series [33], 469 ng/mL; in series [35], 288 ng/g. Also, the concentration at 6 h amounted to 26 ng/g in series [11], 45.5 ng/mL in [26], 10.5 ng/g in series [28] and 43.7 ng/mL in series [36]. The Cmax in series [12] is 430 ng/mL; in series [21], 44.9 ng/g. The bioavailability in series [19] stood at 100%. Further, the results for the AUClast in series [20], in series [24] and in series [34] were 171.84 ng·h/g, 97.08 ng·h/g and 360.87 ng·h/g, respectively. This compound also displayed an AUC in series [22] of 204.06 ng·h/g.

In the case of `COc1ccc(Nc2nc(-c3c(C)nc4ccccn34)cs2)cc1`, the inhibition result in series [1] (tested as the 2H-labelled form), in [2] (tested as the 2H-labelled form) and in series [3] (tested as the 2H-labelled form) was “Active” each time. In addition, the IC50 in [37] was 10 nM.

As to `COc1c(F)cc(Nc2nc(-c3c(C)nc4ccccn34)cs2)cc1F.Cl`, the inhibition entry in [1], in series [38], in [2], in [39], in series [3] and in [40] was “Active” throughout.
